Tested on: Human Cav2.3 channel
Experiment: Human Cav2.3 channel calcium-influx assay
Type: cell-based
Settings: Fluo8 fluorescence, HEK-293 T-Rex/Kir2.1/Cav2.3e cells, without pluronic acid
Experimental: HEK-293 T-Rex cells were transfected with pcDNA3.1-Kir2.1 to generate a stable cell line. After antibiotic selection, the obtained stable pools were analysed using FLIPR^TETRA (membrane potential assay), and a limiting dilution was performed and a HEK-293 T-Rex/Kir2.1 clone was selected. The clone was transfected with pcDNA3.1-Cav2.3e and pBud-Cav-β4-α2δ1 to generate a stable cell line where the Cav2.3e expression is inducible. After antibiotic selection, functional clone pool analysis and two successive limiting dilutions, the final clone underwent a qPCR analysis and a biophysical and pharmacological validation using patch-clamp.
A compound plate, containing 10 test compounds in eight-points dose response with n=4, was prepared. Test compounds dose response curves were prepared in automated fashion in 100% DMSO at CyBio Felix and starting from a stock solution in 100% DMSO; a defined volume was serially moved into destination wells pre-filled with the desired DMSO volume; stock solution concentration volumes were dependent on the final compounds concentrations to be tested and the final DMSO content used in the assay. For the assay test compounds dose response curves ranged from 30 μM and half log dilution with 0.3% final DMSO. In order to obtain the 8-points dose response curve all the concentrations were created by starting from a 10 mM DMSO stock solution and then moving 9.5 μL into a destination well pre-filled with 20.5 μL of 100% DMSO and repeating this step seven times. This initial step was done into 96 MTP plates, 10 compounds/plate. One 384 MTP was then reformatted to contain all the 10 compounds at 8 concentrations, quadruplicate data points. This so obtained 384 MTP compound plate served as source plate in a “mother to child” process with a CyBi®-Well dispenser in which 0.7 μL of compounds were moved into a destination plate pre-filled with 57.6 μL of Tyrode's buffer 0 mM K+, thus obtaining 4× concentrated compounds solution. In columns 1-2 and 23-24 the control wells were added. Both “source” compound plate and “destination” compound plate were barcoded and a relationship between the two plates was thus generated.
The day before the experiment, cells were detached by gentle wash with DPBS, followed by 5 min incubation at 37° C. with Trypsin solution. Detached cells were diluted with OptiMEM+Doxycycline at 0.2 μg/mL, counted and plated in Poly-D-Lysine coated black/clear bottom (15.000 c/well in 20 μl/well) by the use of a MATRIX WellMate dispenser. Plates were placed into a humidified incubator at 37° C. with 5% CO2 until the experimental day. 24 h after seeding 10 μL/well of 1.5× Fluo8 NW dye solution prepared in Tyrode's buffer 0 mM K* were added on top of the seeding medium. Cell plates were incubated for 40-60 min at RT in the dark. We then Injected off-line 10 μL/well of test compounds and controls 4× concentrated in Tyrode's Buffer 0 mM K+ with the CyBi®-Well instrument. Cell plates were incubated 3 minutes at RT. Finally, we injected 20 μL/well of 3× concentrated activator solution (K20-Na130-Ca2 buffer: 20 mM KCl, 130 mM NaCl, 2 mM CaCl2, 10 mM HEPES, 10 mM Glucose, final concentrations, prepared starting from “K0-Na150-Ca2” and “K150-Na0-Ca2” buffers) at FDSS7000EX instrument and read emitted fluorescence for 130 seconds.
Data analysis was performed with Genedata Screener® software and reported compounds activity as % effect in relation to the normalization standards. The Kinetic Response Value (KRV) is calculated as follows:
KRV=Maximal fluorescence recorded from second 5 to second 130 minus baseline fluorescence, computed as average from second 1 to second 2, of the kinetic trace. The KRV was normalized versus Neutral Controls and Inhibitor Controls in order to obtain the Activity[%] for each well. […] Therefore, the compound activity values were scaled (based on the two references) to a common range (two-point normalization). […]

| SMILES | Cav2.3 (pIC50) |
| --- | --- |
| CCN([C@@H](c1ccc(F)cc1)C(F)(F)F)S(=O)(=O)C1CCOCC1 [Example 62, (S)—N-ethyl-N-(2,2,2-trifluoro-1-(4-fluorophenyl)ethyl)tetrahydro-2H-pyran-4-sulfonamide] | 5.20 |
| Cc1ccc(S(=O)(=O)N(C)C(c2ccc(F)cc2)C(F)(F)F)s1 (centres unmarked) [Example 11, N,5-dimethyl-N-(2,2,2-trifluoro-1-(4-fluorophenyl)ethyl)thiophene-2-sulfonamide] | 5.22 |
| CN([C@@H](c1ccc(F)cc1)C(F)(F)F)S(=O)(=O)C1CCOCC1 [Example 131, (S)—N-methyl-N-(2,2,2-trifluoro-1-(4-fluorophenyl)ethyl)tetrahydro-2H-pyran-4-sulfonamide] | 5.12 |
| CCN(C(c1ccc(C)cc1)C(F)(F)F)S(=O)(=O)c1cncc(C#N)c1 (centres unmarked) [Example 104, 5-Cyano-N-ethyl-N-(2,2,2-trifluoro-1-(p-tolyl)ethyl)pyridine-3-sulfonamide] | 7.24 |
| CCN([C@@H](c1ccc(F)c(OC)c1)C(F)(F)F)S(=O)(=O)c1cncc(C#N)c1 [Example 258, (S)-5-cyano-N-ethyl-N-(2,2,2-trifluoro-1-(4-fluoro-3-methoxyphenyl)ethyl)pyridine-3-sulfonamide] | 5.87 |
| CCN([C@H](c1ccccc1F)C(F)(F)F)S(=O)(=O)c1cncc(C#N)c1 [Example 116, (R)-5-Cyano-N-ethyl-N-(2,2,2-trifluoro-1-(2-fluorophenyl)ethyl)pyridine-3-sulfonamide] | 5.81 |
| CCN([C@@H](c1ccc(F)cc1)C(F)(F)F)S(=O)(=O)c1cnc(C)nc1 [Example 76, (S)—N-ethyl-2-methyl-N-(2,2,2-trifluoro-1-(4-fluorophenyl)ethyl)pyrimidine-5-sulfonamide] | 5.31 |
| CCN([C@@H](c1ccc(C)cc1)C(F)(F)F)S(=O)(=O)c1cncc(C#N)c1 [Example 105, (S)-5-Cyano-N-ethyl-N-(2,2,2-trifluoro-1-(p-tolyl)ethyl)pyridine-3-sulfonamide] | 5.38 |
| CCN([C@@H](c1ccc(F)cc1)C(F)(F)F)S(=O)(=O)c1ccc(F)s1 [Example 15, (S)—N-ethyl-5-fluoro-N-(2,2,2-trifluoro-1-(4-fluorophenyl)ethyl)thiophene-2-sulfonamide] | 4.94 |
| CCN([C@@H](c1ccccc1F)C(F)(F)F)S(=O)(=O)c1cncc(C#N)c1 [Example 117, (S)-5-cyano-N-ethyl-N-(2,2,2-trifluoro-1-(2-fluorophenyl)ethyl)pyridine-3-sulfonamide] | 5.38 |
| CCN([C@H](c1ccc(F)cc1)C(F)(F)F)S(=O)(=O)c1ccc2c(c1)OCC2 [Example 40, (R)—N-ethyl-N-(2,2,2-trifluoro-1-(4-fluorophenyl)ethyl)-2,3-dihydrobenzofuran-6-sulfonamide] | 5.62 |
| CN(C)C(=O)c1ccc(S(=O)(=O)NC(c2ccc(F)cc2)C(F)(F)F)s1 (centres unmarked) [Example 24, N,N-dimethyl-5-(N-(2,2,2-trifluoro-1-(4-fluorophenyl)ethyl)sulfamoyl)thiophene-2-carboxamide] | 4.89 |
| CN(C(c1ccc(F)cc1)C(F)F)S(=O)(=O)c1ccc(Cl)s1 (centres unmarked) [Example 23, 5-chloro-N-(2,2-difluoro-1-(4-fluorophenyl)ethyl)-N-methylthiophene-2-sulfonamide] | 5.15 |
| CCN(C(c1cccc(C(F)(F)F)c1)C(F)(F)F)S(=O)(=O)c1cncc(C#N)c1 (centres unmarked) [Example 85, 5-Cyano-N-ethyl-N-(2,2,2-trifluoro-1-(3-(trifluoromethyl)phenyl)ethyl)pyridine-3-sulfonamide] | 6.34 |
| CCN([C@H](c1ccc(F)cc1)C(F)(F)F)S(=O)(=O)c1ccn2cnnc2c1 [Example 138, (R)—N-ethyl-N-(2,2,2-trifluoro-1-(4-fluorophenyl)ethyl)-[1,2,4]triazolo[4,3-a]pyridine-7-sulfonamide] | 6.78 |
| CCN([C@@H](c1cccc(Cl)c1)C(F)(F)F)S(=O)(=O)c1cncc(C#N)c1 [Example 252, (S)—N-(1-(3-chlorophenyl)-2,2,2-trifluoroethyl)-5-cyano-N-ethylpyridine-3-sulfonamide] | 5.71 |
| CCN([C@H](c1ccc(C(F)(F)F)cc1)C(F)(F)F)S(=O)(=O)c1cnc2cccnn12 [Example 212, (R)—N-ethyl-N-(2,2,2-trifluoro-1-(4-(trifluoromethyl)phenyl)ethyl)imidazo[1,2-b]pyridazine-3-sulfonamide] | 6.80 |
| CN(C(c1ccc(F)cc1)C(F)(F)F)S(=O)(=O)c1cncnc1 (centres unmarked) [Example 58, N-methyl-N-(2,2,2-trifluoro-1-(4-fluorophenyl)ethyl)pyrimidine-5-sulfonamide] | 6.35 |
| CCN([C@H](c1ccc(F)c(F)c1)C(F)(F)F)S(=O)(=O)c1cncc(C#N)c1 [Example 250, (R)-5-cyano-N-(1-(3,4-difluorophenyl)-2,2,2-trifluoroethyl)-N-ethylpyridine-3-sulfonamide] | 7.14 |
| CCN([C@@H](c1ccccc1OC)C(F)(F)F)S(=O)(=O)c1cncc(C#N)c1 [Example 108, (S)-5-cyano-N-ethyl-N-(2,2,2-trifluoro-1-(2-methoxyphenyl)ethyl)pyridine-3-sulfonamide] | 4.30 |
| CN([C@H](c1ccc(C(F)(F)F)cc1)C(F)(F)F)S(=O)(=O)c1ccc2nccn2c1 [Example 234, (R)—N-methyl-N-(2,2,2-trifluoro-1-(4-(trifluoromethyl)phenyl)ethyl)imidazo[1,2-a]pyridine-6-sulfonamide] | 6.38 |
| CN([C@H](c1ccc(Cl)cc1)C(F)(F)F)S(=O)(=O)c1cnc2ncccn12 [Example 230, (R)—N-(1-(4-chlorophenyl)-2,2,2-trifluoroethyl)-N-methylimidazo[1,2-a]pyrimidine-3-sulfonamide] | 7.00 |
| CN([C@@H](CF)c1ccc(Cl)cc1)S(=O)(=O)c1cncc(C#N)c1 [Example 213, (R)—N-(1-(4-chlorophenyl)-2-fluoroethyl)-5-cyano-N-methylpyridine-3-sulfonamide] | 6.07 |
| CCN([C@H](c1cccc(OC)c1)C(F)(F)F)S(=O)(=O)c1cncc(C#N)c1 [Example 72, (R)-5-Cyano-N-ethyl-N-(2,2,2-trifluoro-1-(3-methoxyphenyl)ethyl)pyridine-3-sulfonamide] | 6.20 |
| COc1cc(S(=O)(=O)N(C)[C@H](c2ccc(Cl)cc2)C(F)(F)F)cnn1 [Example 229, (R)—N-(1-(4-chlorophenyl)-2,2,2-trifluoroethyl)-6-methoxy-N-methylpyridazine-4-sulfonamide] | 6.93 |
| CCN([C@H](c1cccc(Cl)c1)C(F)(F)F)S(=O)(=O)c1cncc(C#N)c1 [Example 251, (R)—N-(1-(3-chlorophenyl)-2,2,2-trifluoroethyl)-5-cyano-N-ethylpyridine-3-sulfonamide] | 7.18 |
| CCN(C(c1ccc(F)cc1)C(F)(F)F)S(=O)(=O)c1ccc(C)s1 (centres unmarked) [Example 8, N-ethyl-5-methyl-N-(2,2,2-trifluoro-1-(4-fluorophenyl)ethyl)thiophene-2-sulfonamide] | 5.53 |
| Cc1ncc(S(=O)(=O)N(C)[C@H](c2ccc(F)cc2)C(F)(F)F)cn1 [Example 78, (R)—N,2-dimethyl-N-(2,2,2-trifluoro-1-(4-fluorophenyl)ethyl)pyrimidine-5-sulfonamide] | 5.69 |
| CCN([C@H](c1ccc(F)c(OC)c1)C(F)(F)F)S(=O)(=O)c1cncc(C#N)c1 [Example 259, (R)-5-cyano-N-ethyl-N-(2,2,2-trifluoro-1-(4-fluoro-3-methoxyphenyl)ethyl)pyridine-3-sulfonamide] | 6.61 |

Source: patent US20250115569A1, “SULFONAMIDE COMPOUNDS FOR THE TREATMENT OF NEUROLOGICAL CONDITIONS” (LARIO THERAPEUTICS LIMITED, priority 2021, published 2025)
